Experiments:
Test in all cases: relative viability (nuclei count vs DMSO), 5 days (fraction); higher = more cells survive
[1] = compound: COc1cc2nc(N3CCCN(C)CC3)nc(NC3CCN(Cc4ccccc4)CC3)c2cc1OC + CS(=O)(=O)N1CCN(Cc2cc3nc(-c4cccc5[nH]ncc45)nc(N4CCOCC4)c3s2)CC1 [Pictilisib] (partner 1 µM)
Outline: (§1)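 After 5 days of treatment, lung cancer cells in 1536-well plates were fixed and stained in a single step (final 0.05% Triton X-100, 1% formaldehyde, 1 ug/ml Hoechst) and their nuclei counted on 4× images. Treatment had been applied by pin tool the day after seeding as one drug alone or as a fixed anchor-drug dose with five library-drug doses (not always all listed) in √10 steps. Relative viability is the nuclei count of treated wells divided by that of vehicle wells, and values are medians of duplicate plates.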

[2] = compound: COc1cc2nc(N3CCCN(C)CC3)nc(NC3CCN(Cc4ccccc4)CC3)c2cc1OC + Nc1ncn([C@H]2C[C@H](O)[C@@H](CO)O2)c(=O)n1 [Decitabine] (partner 2 µM)
Outline: as §1

AZD6482 + Trametinib = compound: Cc1cc([C@@H](C)Nc2ccccc2C(=O)O)c2nc(N3CCOCC3)cc(=O)n2c1 [AZD6482] + CC(=O)Nc1cccc(-n2c(=O)n(C3CC3)c(=O)c3c(Nc4ccc(I)cc4F)n(C)c(=O)c(C)c32)c1 [Trametinib] (partner 0.02 µM)
Outline: as §1

AZD6482 + AZD7762 = compound: Cc1cc([C@@H](C)Nc2ccccc2C(=O)O)c2nc(N3CCOCC3)cc(=O)n2c1 [AZD6482] + NC(=O)Nc1cc(-c2cccc(F)c2)sc1C(=O)N[C@H]1CCCNC1 [AZD7762] (partner 0.2 µM)
Outline: as §1

Cell Line	relative viability ([1]; first compound 0.2 µM)	relative viability ([1]; first compound 0.6325 µM)	relative viability ([1]; first compound 2 µM)	relative viability ([1]; first compound 6.325 µM)	relative viability ([2]; first compound 0.2 µM)	relative viability ([2]; first compound 0.6325 µM)	relative viability ([2]; first compound 2 µM)	relative viability ([2]; first compound 6.325 µM)	relative viability (AZD6482 + Trametinib; first compound 0.08 µM)	relative viability (AZD6482 + Trametinib; first compound 0.253 µM)	relative viability (AZD6482 + Trametinib; first compound 0.8 µM)	relative viability (AZD6482 + Trametinib; first compound 2.53 µM)	relative viability (AZD6482 + Trametinib; first compound 8 µM)	relative viability (AZD6482 + AZD7762; first compound 0.08 µM)	relative viability (AZD6482 + AZD7762; first compound 0.253 µM)	relative viability (AZD6482 + AZD7762; first compound 0.8 µM)	relative viability (AZD6482 + AZD7762; first compound 2.53 µM)	relative viability (AZD6482 + AZD7762; first compound 8 µM)
NCI-H1734	0.459	0.418	0.392	0.384	0.504	0.469	0.516	0.519	0.613	0.656	0.565	0.519	0.491	0.533	0.504	0.556	0.303	0.367
NCI-H1755	0.423	0.425	0.377	0.317	0.657	0.669	0.689	0.663	0.7	0.75	0.693	0.542	0.508	0.463	0.417	0.453	0.344	0.311
NCI-H1792	0.299	0.233	0.247	0.276	0.625	0.553	0.481	0.496	0.322	0.377	0.41	0.251	0.283	0.516	0.577	0.427	0.262	0.322
NCI-H1793	0.317	0.342	0.282	0.372	0.499	0.476	0.465	0.571	0.37	0.397	0.352	0.32	0.283	0.377	0.361	0.315	0.218	0.249
NCI-H1915	0.94	0.97	1.04	0.865	0.263	0.26	0.276	0.264	0.257	0.27	0.29	0.239	0.226	0.672	0.538	0.669	0.631	0.639
NCI-H1944	0.342	0.365		0.336	0.465	0.505	0.391	0.455	0.38	0.375	0.426	0.351	0.335	0.57	0.522	0.499	0.381	0.417
NCI-H1975	0.276	0.313	0.332	0.248	0.37	0.39	0.419	0.37	0.287	0.32	0.307	0.278	0.39	0.621	0.631	0.676	0.477	0.363
NCI-H1993	0.709	0.858	0.894	0.811	0.566	0.522	0.58	0.568	0.506	0.498	0.446	0.52	0.475	0.454	0.734	0.717	0.427	0.55
NCI-H2085	0.446	0.522	0.471	0.404	0.53	0.531	0.594	0.559	0.266	0.231	0.218	0.223	0.218	0.522	0.372	0.41	0.289	0.341

From the supplement of paper PMC10307832
